Measurements as given in PMC6204601, “In Vivo Selectivity and Localization of Reactive Oxygen Species (ROS) Induction by Osmium Anticancer Complexes That Circumvent Platinum Resistance” (Journal of Medicinal Chemistry, 2018).
Where two headings read alike, the source gives them in different places.

Assays:
[1] = system: A2780Cis cisplatin-resistant ovarian carcinoma cells; test: Sulforhodamine B antiproliferative assay, A2780Cis; type: cell-based, human; settings: 24 h drug exposure + 72 h recovery, SRB
[2] = system: A549 lung carcinoma cells; test: Sulforhodamine B antiproliferative assay, A549; type: cell-based, human; settings: 24 h drug exposure + 72 h recovery, SRB
[3] = system: Singapore wild-type zebrafish embryos; type: in vivo, Danio rerio; settings: zebrafish embryos, 96 h exposure; read-out: LC50 (Danio rerio) SG-WT
Protocol: In vivo biological studies […]
wild-type zebrafish (SGWT) embryos (< 5 dpf). All animals were maintained in accordance with ASPA […]
maintained. Light cycle: 14 hours day, 10 hours night.
1 L breeding tank. Pairs were set up the previous evening. Males and females were separated by a divider. The divider was removed around 9am (dawn). Embryos were collected and placed into petri dishes with fresh egg water. […]

[4] = system: HCT116p53-/- P53-knockout colorectal carcinoma cells; test: Sulforhodamine B antiproliferative assay, HCT116p53-/-; type: cell-based, human; settings: 24 h drug exposure + 72 h recovery, SRB, read-out: Antiproliferative activity (IC50) HCT116p53-/- Colon
[5] = system: HCT116 colorectal carcinoma cells; test: Sulforhodamine B antiproliferative assay, HCT116; type: cell-based, human; settings: 24 h drug exposure + 72 h recovery, SRB; read-out: Antiproliferative activity (IC50) HCT116 Colon
[6] = system: A2780 ovarian carcinoma cells; test: Sulforhodamine B antiproliferative assay, A2780; type: cell-based, human; settings: SRB
[7] = system: Tubingen wild-type zebrafish embryos; test: Zebrafish embryo toxicity (FET) test, TU-WT; type: in vivo; settings: 96 h exposure, read-out: LC50 (Danio rerio) TU-WT
[8] = system: AB wild-type zebrafish embryos; type: in vivo; settings: 96 h exposure, read-out: LC50 (Danio rerio) AB-WT
[9] = system: HOF human ovarian fibroblasts; test: Sulforhodamine B antiproliferative assay, HOF; type: cell-based; settings: 24 h drug exposure + 72 h recovery, SRB; non-cancer fibroblasts
Protocol: (§1) In vitro biological studies
(§2) Sulforhodamine B cell viability colorimetric assay.
(§3) by ICP-OES analysis for metal content).
(§4) 72 h recovery time (310 K).
(§5) using slowly-running tap water and air dried.
(§6) Data were processed using Microsoft Excel

[10] = system: HCT116p21-/- P21-knockout colorectal carcinoma cells; test: Sulforhodamine B antiproliferative assay, HCT116p21-/-; type: cell-based, human; settings: 24 h drug exposure + 72 h recovery, SRB, read-out: Antiproliferative activity (IC50) HCT116p21-/- Colon
[11] = system: MRC5 human lung fibroblasts; test: Sulforhodamine B antiproliferative assay, MRC5; type: cell-based; settings: 24 h drug exposure + 72 h recovery, SRB; non-cancer fibroblasts
Protocol: as §1, §2, §3, §4, §5, §6
IC50 values (concentrations at which […]
After this time, cells were […]

[12] = system: HCT116Ox oxaliplatin-resistant colorectal carcinoma cells; test: Sulforhodamine B antiproliferative assay, HCT116Ox; type: cell-based, human; settings: 24 h drug exposure + 72 h recovery, SRB, read-out: Antiproliferative activity (IC50) HCT116Ox Colon
[13] = system: HOF human ovarian fibroblasts; test: ROS/superoxide detection by flow cytometry, HOF; settings: 24 h, 1.0 × IC50 (pyocyanin positive control 0.1 mM); for % Population Q2 FL1-H+ / FL2-H+: ROS and superoxide; for % Population Q1 FL1-H- / FL2-H+: superoxide only; for % Population Q3 FL1-H+ / FL2-H-: total ROS only
Protocol: (§7) Reactive oxygen species (ROS) determination using flow cytometry. The generation of ROS and
(§8) superoxide in A2780 ovarian cancer cells was evaluated using the ROS/Superoxide detection kit (Enzo
(§9) Life Sciences) following the manufacturer’s protocol.
(§10) cells per well, and incubated for 24 h (310 K). After this time, cells were exposed to equipotent
The pellets were re-suspended in 500
(§11) μL PBS and stained with green fluorescent reagent for total ROS reading in the FL1-green channel (2
(§12) μL) and orange fluorescent reagent for superoxide reading in the FL2-red channel (2 μL). Positive
(§13) control samples were treated with pyocyanin (5 μL, 30 min). Single stained positive control samples
(§14) were used for compensation purposes. Data were obtained using a Becton Dickson FACScan Flow
(§15) Cytometer and processed using FlowJo V10 for Windows.

[14] = system: A2780 cancer cells; test: ROS/superoxide detection by flow cytometry, A2780; settings: A2780, 24 h, 1.0 × IC50 (pyocyanin positive control 0.1 mM); for % Population Q2 FL1-H+ / FL2-H+: ROS and superoxide; for % Population Q1 FL1-H- / FL2-H+: superoxide only; for % Population Q3 FL1-H+ / FL2-H-: total ROS only
Protocol: as §7, §8, §9, §10
The pellets were re-suspended in 500
as §11, §12, §13, §14, §15

[15] = 24 h drug exposure + 72 h recovery in drug-free medium, read-out: Antiproliferative activity (IC50) A2780 Ovarian

Row | Compound | IC50 [1] [µM] | IC50 [2] [µM] | LC50 [3] [µM] | IC50 [4] [µM] | IC50 [5] [µM] | IC50 [6, 15] [nM] | LC50 [7] [µM] | LC50 [8] [µM] | IC50 [9] [µM] | IC50 [10] [µM] | IC50 [11] [µM] | IC50 [12] [µM] | further results
1 | CS(=O)(=O)[N]1[Os][NH][C@H](c2ccccc2)[C@H]1c1ccccc1.Cc1ccc(C(C)C)cc1 [Complex 2, [Os(p-cymene)(Ms-DPEN)]] | 39.4 ± 0.6 | 31 ± 1 | 3.5 ± 0.4 | 56 ± 6 | 67 ± 1 | 30000 ± 2000 | 2.8 ± 0.5 | 2.8 ± 0.6 | > 50 | 71 ± 5 | 26 ± 0.4 | 56 ± 5 | 
2 | Cc1ccc(C(C)C)cc1.[NH-]C(c1ccccc1)C([N-]S(=O)(=O)c1ccc([N+](=O)[O-])cc1)c1ccccc1.[Os+2] (centres unmarked) [Complex 3, [Os(p-cymene)(Ns-DPEN)]] | 21.1 ± 0.3 | 27 ± 2 | 1.9 ± 0.3 | 53 ± 3 | 67 ± 1 | 19900 ± 500 |  | 3.9 ± 0.3 | > 50 | 63 ± 4 | 21.9 ± 0.7 | 64 ± 5 | 
3 | Cc1ccc(C(C)C)cc1.O=S(=O)(c1ccc(F)cc1)[N]1[Os][NH][C@H](c2ccccc2)[C@H]1c1ccccc1 [Complex 4, [Os(p-cymene)(Fb-DPEN)]] | 15 ± 2 | 31.5 ± 0.4 | 0.7 ± 0.2 | 39.4 ± 0.6 | 49 ± 3 | 17000 ± 1000 | 1.5 ± 0.3 | 3 ± 0.5 | 48 ± 3 | 70 ± 3 | 35 ± 1 | 54 ± 2 | 
4 | Cc1ccc(C(C)C)cc1.O=S(=O)(c1ccccc1)[N]1[Os][NH][C@H](c2ccccc2)[C@H]1c1ccccc1 [Complex 5, [Os(p-cymene)(Bs-DPEN)]] | 21 ± 1 | 26.3 ± 0.5 | 0.8 ± 0.2 | 48 ± 2 | 49 ± 6 | 13500 ± 900 | 1.5 ± 0.3 |  | 19.9 ± 0.9 | 54.3 ± 0.9 | 31.3 ± 0.2 | 52 ± 0.8 | 
5 | Cc1ccc(S(=O)(=O)[N]2[Os][NH][C@H](c3ccccc3)[C@H]2c2ccccc2)cc1.c1ccc(-c2ccccc2)cc1 [Complex 7, [Os(biphenyl)(Ts-DPEN)]] | 25.9 ± 0.7 | 22.4 ± 0.7 |  | 40 ± 6 | 26.1 ± 0.3 | 6500 ± 300 | 3.3 ± 0.4 | 3.5 ± 0.8 | 44 ± 1 | 90 ± 1 | 15.1 ± 0.5 | 46.2 ± 0.7 | 
6 | Cc1ccc(S(=O)(=O)[N]2[Os][NH][C@H](c3ccccc3)[C@H]2c2ccccc2)cc1.c1ccc(-c2cccc(-c3ccccc3)c2)cc1 [Complex 8, [Os(terphenyl)(Ts-DPEN)]] | 10.4 ± 0.5 | 25.5 ± 0.3 | 0.7 ± 0.2 |  | 41.2 ± 0.7 | 4400 ± 300 |  |  | 24.3 ± 0.4 |  | 9.7 ± 0.2 |  | 
7 | CN(C)c1ccc(N=Nc2ccccn2)cc1.Cc1ccc(C(C)C)cc1.F[P-](F)(F)(F)(F)F.[Cl][Os+] [Complex 9, [Os(Azpy-NMe2)(p-cymene)Cl]PF6] | 0.37 ± 0.03 | 36.6 ± 0.8 | 13.61 ± 0.09 | 3.2 ± 0.3 | 21.9 ± 0.7 | 1800 ± 100 | 12 ± 1 | 14 ± 2 | 11.1 ± 0.9 | 4 ± 0.3 | 7.1 ± 0.2 | 5.8 ± 0.7 | % Population Q4 FL1-H- / FL2-H- [13]: 15 ± 1%; % Population Q2 FL1-H+ / FL2-H+ [13]: 13.8 ± 0.1%; % Population Q1 FL1-H- / FL2-H+ [13]: 11.7 ± 0.8%; % Population Q3 FL1-H+ / FL2-H- [13]: 60 ± 2%; % Population Q4 FL1-H- / FL2-H- [14]: 0 ± 0%; % Population Q2 FL1-H+ / FL2-H+ [14]: 97.0 ± 0.2%; % Population Q1 FL1-H- / FL2-H+ [14]: 0 ± 0%; % Population Q3 FL1-H+ / FL2-H- [14]: 3.0 ± 0.2%
8 | CN(C)c1ccc(N=Nc2ccccn2)cc1.F[P-](F)(F)(F)(F)F.[Cl][Os+].c1ccc(-c2ccccc2)cc1 [Complex 11, [Os(Azpy-NMe2)(biphenyl)Cl]PF6] | 16.8 ± 0.2 | 20 ± 1 | 16.8 ± 0.8 | 28 ± 1 | 7.2 ± 0.05 | 3900 ± 300 | 15.8 ± 0.9 | 12 ± 1 | 27 ± 2 | 67 ± 3 | 16.9 ± 0.1 | 10 ± 0.9 | 
9 | F[P-](F)(F)(F)(F)F.Oc1ccc(N=Nc2ccccn2)cc1.[I][Os+].c1ccc(-c2ccccc2)cc1 [Complex 13, [Os(Azpy-OH)(biphenyl)I]PF6] | 0.13 ± 0.02 | 0.52 ± 0.06 | 8 ± 0.1 | 0.13 ± 0.01 | 0.15 ± 0.01 |  | 7.2 ± 0.2 | 7.4 ± 0.2 | 0.32 ± 0.09 | 0.3 ± 0.01 | 0.22 ± 0.01 | 0.14 ± 0.01 | IC50 ([6]; 24 h drug exposure + 72 h recovery, value in nM, read-out: IC50 in A2780): 140 nM
10 | Cn1c2cccc(=O)c-2nc2ccccc21 [Pyocyanin, pyocyanin, reference compound] |  |  |  |  |  |  |  |  |  |  |  |  | % Population Q4 FL1-H- / FL2-H- [13]: 1.2 ± 0.5%; % Population Q2 FL1-H+ / FL2-H+ [13]: 90 ± 2%; % Population Q1 FL1-H- / FL2-H+ [13]: 8 ± 2%; % Population Q3 FL1-H+ / FL2-H- [13]: 1.2 ± 0.2%; % Population Q4 FL1-H- / FL2-H- [14]: 0.02 ± 0.01%; % Population Q2 FL1-H+ / FL2-H+ [14]: 99 ± 2%; % Population Q1 FL1-H- / FL2-H+ [14]: 0.03 ± 0.02%; % Population Q3 FL1-H+ / FL2-H- [14]: 0.00 ± 0.01%
11 | N.N.O=C([O-])C1(C(=O)[O-])CCC1.[Pt+2] [carboplatin, reference compound] |  |  | 5.7 ± 0.9 |  |  |  | 7.1 ± 0.7 | 10 ± 1 |  |  |  |  | 
12 | N.N.[Cl][Pt][Cl] [cisplatin, reference compound] | 11.5 ± 0.2 | 3.2 ± 0.1 |  | 36.7 | 5.1 ± 0.3 | 1200 |  |  |  | 9.2 ± 0.5 | 13.5 ± 0.9 | 23.4 ± 0.4 | 
13 | [Os(p-cymene)(SRB-DPEN)] [Complex 6] | 27.2 ± 0.4 | 16.8 ± 0.2 |  | 34 ± 3 | 40.6 ± 0.1 | 18000 ± 3000 |  |  |  | 43 ± 3 |  | 35 ± 1 | 
